# Assay results published in patent US11957680B2, “Pyruvate kinase activators for use in treating blood disorders” (Agios Pharmaceuticals, Inc., priority 2017, dated 2024).
# Experiments:
# wild type PKR [1] = biological target: T1, wild type PKR (Homo sapiens, UniProt P30613); test: Cell based ATP assay in purified red blood cells (Cell-Titer-Glo); parameters: endogenous in cells; host or cells: purified red blood cells from healthy volunteers; details: overnight at 37° C., ATP levels; for Cell based ATP assay AC50 / AC50: Table 2, RBCs; for EC50 / Cell based ATP assay: Table 4, AC50, RBCs
# Procedure: Example 16. Red Blood Cell (RBC) Purification
# Fresh blood drawn from healthy volunteers into K2EDTA tubes was collected. Whole blood was pelleted by spinning at 500 g for 10 minutes. Cut transfusion bag port off of Purecell leukocyte reduction neofilter (Fisher NC0267633) one (1) inch above filter. Attach a 10 ml syringe barrel to the remaining cut tubing attached to neofilter. The plasma layer was removed from the pellet of the whole blood and the pellet was resuspended in 2× volume of phosphate buffered saline (PBS). Transfer 9 ml re-suspended blood cell pellet to prepared 10 ml syringe that is attached to the neofilter. Allow whole blood to gravity flow through filter until all fluid runs through upper tubing into filter disc. Add plunger to the syringe, remove syringe from clamp and invert the filter, then plunge air through the syringe filter system. Using a new 5 ml syringe, remove filtered RBCs from the bag by the syringe port and transfer purified RBCs to a 5 ml snap cap tube that has been incubated on ice. Spin 5 ml snap cap tube at 500 g for 10 minutes at 15 C, aspirate supernatant and resuspend in AGAM (1×PBS, 1% glucose, 170 mg/L adenine, 5.25 g/L mannitol) at a density of 4×10^9 cells/mL.
# Example 17. Cell Based ATP Assay
# For cell based ATP assays, the compound as described herein was prepared in 100% DMSO as a 10 mM stock. Serial dilutions (1:4) were performed in 96-well V-bottom storage plate and then added 1:100 to 96-well V-bottom plates containing AGAM. RBCs were diluted in AGAM media to a density of 1×10^7 cells/mL before added 90 μL/well to black clear bottom assay plates (final compound concentration at 0.1% DMSO concentration). Assay plates were sealed using aluminum foil seals and incubated overnight at 37° C. in a humidified chamber. ATP levels were read out using Cell-Titer-Glo (Promega).
# wild type PKR [2] = biological target: T1, wild type PKR; test: PKR (wild type) enzyme AC50 assay, LDH/NADH-coupled, absorbance at 340 nm; type: biochemical; details: for AC50: read-out: PKR WT AC50; for EC50: read-out: PKR WT
# Procedure: (§1) Example 11. PKR Mutant Assay
# (§2) PKR or PKR mutant enzyme solution was diluted into a reaction mix, which contains 1× buffer (100 mM KCl, 50 mM Tris pH 7.5, 5 mM MgCl2) as well as PEP (conc depends on enzyme), 180 μM NADH, 0.5 units LDH, 1 mM DTT, 0.03% BSA; final assay concentrations after 1.11 fold dilution are indicated.
# (§3) 2 μL of test compound was added into wells first, and then 180 μL reaction mix was added.
# (§4) Reactions mixture with test compound was assembled except for ADP, and plates were stored for 60 minutes at room temperature.
# (§5) 20 uL ADP was added to start reaction at room temperature and reaction progress was measured as changes in absorbance at 340 nm wavelength at room temperature.
# (§6) Test Compound Preparation:
# (§7) Test compound stock was made at 100× concentration in 100% DMSO (10 mM)
# (§8) 1 to 3 dilutions were made for 11 points (i.e. 50 μl of first concentration added to 100 μl 100% DMSO to yield 3.33 mM, 50 μl of this added to 100 μl DMSO to yield 1.11 mM, and so forth) • 1 to 100 dilution into assay (2 μl in 200 μl) yielded starting concentration of 100 μM, decreasing 3 fold for 11 points.
# (§9) Assay Buffer: 100 mM KCl, 50 mM Tris 7.5, 5 mM MgCl2, 1 mM DTT, 0.03% BSA
# (§10) Reaction Mixture: PKR mutant enzyme: 40-400 ng/well; ADP: 0.2-1.65 mM; PEP: 0.1-0.5 mM; NADH: 180 μM; LDH: 0.5 units (Sigma #59023); DTT: 1 mM; BSA: 0.03%.
# PKR K410E = PKR K410E (Homo sapiens, UniProt P30613, K410E); test: PKR mutant assay (K410E), AC50, LDH/NADH-coupled, absorbance at 340 nm; type: biochemical; details: for EC50: Table 4, AC50, enzyme assay
# Procedure: as §1, §2, §3, §4, §5, §6, §7, §8, §9, §10
# PKR R510Q = PKR R510Q (Homo sapiens, UniProt P30613, R510Q); test: PKR mutant assay (R510Q), AC50, LDH/NADH-coupled, absorbance at 340 nm; type: biochemical; details: for AC50: read-out: PK R510Q AC50; for EC50: read-out: PK R510Q
# Procedure: as §1, §2, §3, §4, §5, §6, §7, §8, §9, §10
# Sequence of PKR R510Q (P30613 whole entry R510Q): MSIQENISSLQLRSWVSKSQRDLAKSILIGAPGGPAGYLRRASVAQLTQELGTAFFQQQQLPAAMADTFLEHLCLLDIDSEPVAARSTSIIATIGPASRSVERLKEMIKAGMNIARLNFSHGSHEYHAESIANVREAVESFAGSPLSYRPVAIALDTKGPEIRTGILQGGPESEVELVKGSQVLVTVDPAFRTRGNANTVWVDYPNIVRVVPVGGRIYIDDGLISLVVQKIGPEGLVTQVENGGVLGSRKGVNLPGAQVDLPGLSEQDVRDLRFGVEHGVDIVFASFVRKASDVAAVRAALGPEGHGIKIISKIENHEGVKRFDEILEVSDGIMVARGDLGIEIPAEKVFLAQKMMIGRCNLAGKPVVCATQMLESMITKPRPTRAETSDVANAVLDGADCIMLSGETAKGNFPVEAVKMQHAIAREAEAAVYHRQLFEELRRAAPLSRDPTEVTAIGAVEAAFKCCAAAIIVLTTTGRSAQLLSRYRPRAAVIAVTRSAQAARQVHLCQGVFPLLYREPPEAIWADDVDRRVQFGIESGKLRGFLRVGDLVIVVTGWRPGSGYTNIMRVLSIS
# T1 sequence (P30613 whole entry): as the sequence (P30613 whole entry R510Q) above, with Q510R counted along it
# Sequence of PKR K410E (P30613 whole entry K410E): as the sequence (P30613 whole entry R510Q) above, with K410E, Q510R counted along it
AC50 (wild type PKR [1]) [nM],"AC50 (wild type PKR [2]; Table 2, enzyme assay) [nM]","AC50 (PKR K410E; Table 2, enzyme assay) [nM]","AC50 (PKR R510Q; Table 2, enzyme assay) [nM]",EC50 (PKR K410E) [nM],Compound,other results
,,,,,CSc1nc2c(s1)c1cnn(Cc3cnc(=O)[nH]c3)c(=O)c1n2C [Compound 95],"Cell based ATP assay AC50 (wild type PKR [1]): No Fit; PKR WT AC50 (wild type PKR [2]; Table 2, enzyme assay): No Fit; PKR K410E AC50 (PKR K410E; Table 2, enzyme assay): No Fit; PK R510Q AC50 (PKR R510Q; Table 2, enzyme assay): No Fit"
> 1000,301 to 800,301 to 800,< 300,,COc1cccc(Cn2ncc3c4sc(I)nc4n(C)c3c2=O)c1 [Compound 40],
,,,,> 800,Cn1c2nc(Cc3cc[nH]n3)sc2c2cnn(Cc3cccc4c3NS(=O)(=O)N4)c(=O)c21 [Compound 275],"EC50 (wild type PKR [1]): > 1000 nM; EC50 (wild type PKR [2]; Table 4, AC50, enzyme assay): > 800 nM; EC50 (PKR R510Q; Table 4, AC50, enzyme assay): > 800 nM"
≤ 1000,< 300,< 300,< 300,,Cn1c2nc(Cc3cc[nH]n3)sc2c2cnn(Cc3cccc(C(N)=O)c3)c(=O)c21 [Compound 183],
≤ 1000,< 300,< 300,< 300,,COc1cccc(Cn2ncc3c4sc(Cc5cc[nH]n5)nc4n(C)c3c2=O)c1 [Compound 144],
> 1000,> 800,> 800,> 800,,Cn1c2nc(NC(=O)Cc3cc[nH]n3)sc2c2cnn(Cc3cccc4[nH]ncc34)c(=O)c21 [Compound 180],
,,,,> 800,Cn1c2nc(-n3cnc(CS(=O)(=O)c4ccccc4)c3)sc2c2cnn(Cc3cccc4[nH]ncc34)c(=O)c21 [Compound 187],"Cell based ATP assay (wild type PKR [1]): No Fit; PKR WT (wild type PKR [2]; Table 4, AC50, enzyme assay): No Fit; PK R510Q (PKR R510Q; Table 4, AC50, enzyme assay): No Fit"
≤ 1000,< 300,< 300,< 300,,Cc1cccc(Cn2ncc3c4sc(C)nc4n(C)c3c2=O)n1 [Compound 17],
≤ 1000,< 300,< 300,< 300,,Cn1c2nc(Cc3cc[nH]n3)sc2c2cnn(Cc3ccc4ccccc4n3)c(=O)c21 [Compound 111],
> 1000,> 800,> 800,301 to 800,,CNCc1nc2c(s1)c1cnn(Cc3cccc4[nH]ncc34)c(=O)c1n2C [Compound 125],
,,,,< 300,Cn1c2nc(Oc3ccn[nH]3)sc2c2cnn(Cc3cccc(N)n3)c(=O)c21 [Compound 396],"EC50 (wild type PKR [1]): ≤ 1000 nM; EC50 (wild type PKR [2]; Table 4, AC50, enzyme assay): < 300 nM; EC50 (PKR R510Q; Table 4, AC50, enzyme assay): < 300 nM"
≤ 1000,< 300,< 300,< 300,,Cc1nc2c(s1)c1cnn(Cc3cc[nH]n3)c(=O)c1n2C [Compound 68],
≤ 1000,< 300,< 300,< 300,,Cn1c2nc(CO)sc2c2cnn(Cc3cccc4[nH]ncc34)c(=O)c21 [Compound 105],
,,,,> 800,Cn1c2nc(Cn3cnnc3)sc2c2cnn(Cc3cccc4[nH]ncc34)c(=O)c21 [Compound 294],"EC50 (wild type PKR [1]): > 1000 nM; EC50 (wild type PKR [2]; Table 4, AC50, enzyme assay): > 800 nM; EC50 (PKR R510Q; Table 4, AC50, enzyme assay): 301 to 800 nM"
> 1000,> 800,> 800,> 800,,Cn1c2nc(Cc3ccc(C(N)=O)cc3)sc2c2cnn(Cc3cccc4[nH]ncc34)c(=O)c21 [Compound 112],
≤ 1000,< 300,301 to 800,< 300,,COc1cccc(Cn2ncc3c4sc(Cc5ccc(Cl)cc5)nc4n(C)c3c2=O)c1 [Compound 31],
≤ 1000,< 300,< 300,< 300,,CC(O)c1nc2c(s1)c1cnn(Cc3cccc4[nH]ncc34)c(=O)c1n2C (centres unmarked) [Compound 106],
> 1000,> 800,> 800,< 300,,Cc1nc2c(s1)c1cnn(Cc3cccc(NC(N)=O)c3)c(=O)c1n2C [Compound 15],

AC50 (wild type PKR [1]) [nM],"AC50 (wild type PKR [2]; Table 2, enzyme assay) [nM]","AC50 (PKR K410E; Table 2, enzyme assay) [nM]","AC50 (PKR R510Q; Table 2, enzyme assay) [nM]",EC50 (PKR K410E) [nM],Compound,other results
> 1000,301 to 800,> 800,301 to 800,,COc1cccc(Cn2ncc3c4sc(C(=O)c5cccc(O)c5)nc4n(C)c3c2=O)c1 [Compound 55],
,,,,< 300,Cn1c2nc(Cc3ccc[nH]c3=O)sc2c2cnn(Cc3cccc4[nH]ncc34)c(=O)c21 [Compound 228],"EC50 (wild type PKR [1]): ≤ 1000 nM; EC50 (wild type PKR [2]; Table 4, AC50, enzyme assay): < 300 nM; EC50 (PKR R510Q; Table 4, AC50, enzyme assay): < 300 nM"
,,,,< 300,Cn1c2nc(Cc3cc[nH]n3)sc2c2cnn(Cc3cccc4[nH][nH]c(=O)c34)c(=O)c21 [Compound 307],"EC50 (wild type PKR [1]): ≤ 1000 nM; EC50 (wild type PKR [2]; Table 4, AC50, enzyme assay): < 300 nM; EC50 (PKR R510Q; Table 4, AC50, enzyme assay): < 300 nM"
,,,,> 800,Cn1c2nc(Cc3ccccn3)sc2c2cnn(CC3CCOCC3)c(=O)c21 [Compound 403],"Cell based ATP assay (wild type PKR [1]): No Fit; EC50 (wild type PKR [2]; Table 4, AC50, enzyme assay): > 800 nM; EC50 (PKR R510Q; Table 4, AC50, enzyme assay): > 800 nM"
> 1000,> 800,> 800,> 800,,CC(=O)NC(c1cc[nH]n1)c1nc2c(s1)c1cnn(Cc3cccc4[nH]ncc34)c(=O)c1n2C (centres unmarked) [Compound 178],
> 1000,< 300,< 300,< 300,,Cn1c2nc(Cc3cccc(CO)c3)sc2c2cnn(Cc3cccc4[nH]ncc34)c(=O)c21 [Compound 118],
≤ 1000,< 300,< 300,< 300,,Cn1c2nc(C(C(N)=O)c3ccccc3)sc2c2cnn(Cc3cccc4[nH]ncc34)c(=O)c21 (centres unmarked) [Compound 127],
≤ 1000,< 300,< 300,< 300,,Cn1c2nc(C(C)(O)c3ccccc3)sc2c2cnn(Cc3cccc4[nH]ncc34)c(=O)c21 (centres unmarked) [Compound 126],
> 1000,> 800,> 800,> 800,,COC(=O)C(C(=O)OC)c1nc2c(s1)c1cnn(Cc3cccc4[nH]ncc34)c(=O)c1n2C [Compound 113],
> 1000,< 300,301 to 800,301 to 800,,Cn1c2nc(S(=O)(=O)Cc3ccccc3)sc2c2cnn(Cc3cccc4[nH]ncc34)c(=O)c21 [Compound 128],
,,,,< 300,Cn1c2nc(Cc3cc[nH]n3)sc2c2cnn(Cc3cccc4[nH]ccc34)c(=O)c21 [Compound 246],"EC50 (wild type PKR [1]): ≤ 1000 nM; EC50 (wild type PKR [2]; Table 4, AC50, enzyme assay): < 300 nM; EC50 (PKR R510Q; Table 4, AC50, enzyme assay): < 300 nM"
,,,,> 800,O=c1c2c(cnn1Cc1ccccc1)c1sc(Cc3ccccn3)nc1n2-c1nccs1 [Compound 411],"Cell based ATP assay (wild type PKR [1]): No Fit; EC50 (wild type PKR [2]; Table 4, AC50, enzyme assay): > 800 nM; EC50 (PKR R510Q; Table 4, AC50, enzyme assay): > 800 nM"
,,,,< 300,Cn1c2nc(Cc3c[nH]nn3)sc2c2cnn(Cc3cccc(OC(F)(F)F)c3)c(=O)c21 [Compound 290],"EC50 (wild type PKR [1]): ≤ 1000 nM; EC50 (wild type PKR [2]; Table 4, AC50, enzyme assay): < 300 nM; EC50 (PKR R510Q; Table 4, AC50, enzyme assay): < 300 nM"
≤ 1000,< 300,< 300,< 300,,COc1cccc(Cn2ncc3c4sc(Cc5ccc(C(F)(F)F)cc5)nc4n(C)c3c2=O)c1 [Compound 41],
,> 800,301 to 800,> 800,,Cn1c2nc(Cc3ccc(=O)[nH]c3)sc2c2cnn(Cc3cccc4[nH]ncc34)c(=O)c21 [Compound 174],Cell based ATP assay AC50 (wild type PKR [1]): No Fit
,,,,> 800,Cn1c2nc(Cc3cc[nH]n3)sc2c2cnn(CCc3cccnc3)c(=O)c21 [Compound 399],"Cell based ATP assay (wild type PKR [1]): No Fit; EC50 (wild type PKR [2]; Table 4, AC50, enzyme assay): > 800 nM; EC50 (PKR R510Q; Table 4, AC50, enzyme assay): > 800 nM"
≤ 1000,< 300,< 300,< 300,,Cn1c2nc(C(O)c3cc[nH]n3)sc2c2cnn(Cc3cccc4[nH]ncc34)c(=O)c21 (centres unmarked) [Compound 148],
